In US10810329B2, “In silico design of peptides equilibrated in a lipid bilayer with partition free energies indicating probability of antimicrobial activity” (priority 2015, dated 2020):
Converted amounts (≈) assume the structure as drawn. Peptide text beside a SMILES is read from it.

Experiments:
[1] = tested on: Escherichia coli strain (ATCC 25922); format: cell-based
Protocol: (§1) Minimal inhibitory concentration (MIC) represents for the lowest concentration of peptide at which the AMP can still kill 90% of the bacteria. All MIC tests for WLK peptide series SEQ ID NO:1-13 were measured against Escherichia coli strain (ATCC 25922) in triplicate. Peptide concentration was determined by UV spectrophotometer (Ultrospec 1100 pro from Amersham Biosciences) at 280 nm with proper extinction coefficient. (Gill S. C. & Von Hippel P. H., Analytical biochemistry 1989, 182(2), 319-326). All of the samples were prepared from a stock solution containing peptides of concentrations 5, 2.5, 1.25, 0.625, 0.313, 0.156 and 0.078 mg/ml. Bacteria culture in the middle of logarithmic growth at a concentration of 5×10^5 colony-formation unit (CFU) and protein solution at the aforementioned concentrations were uniformly mixed in a 96-well culture plate (each well contains 1 microliter protein solution and 99 microliter of bacteria culture). After growing the culture at 37° C. for 16 hours, how bacterial growth was inhibited was measured by Thermo Max (Molecular Devices) at the wavelength of 600 nm. The MIC values were determined by triplicates of the above experiments.

E. coli ATCC 25922 = format: cell-based, Escherichia coli; conditions: for Antimicrobial activity (MIC) Experimental values: ATCC 25922; for MIC in MH medium: ATCC 25922, 16 h
Protocol: as §1, with “MIC: Minimal Inhibitory Concentration of AMPs in MH Medium Against E. coli ATCC 25922 Minimal” for “Minimal”

human red blood cells = format: cell-based
Protocol: Hemolysis Activity Test Hemolytic activity was determined by measuring hemolysis of human red blood cells. Fresh red blood cells and PBS buffer solution (pH 7.4) was mixed uniformly and centrifugated by relative centrigugal force (RCF) 800 g rpm for 10 minutes, washed and then diluted by the PBS buffer solution to 10% concentration by volume (v/v). All the tested peptides were prepared with different concentrations (800, 400, 200, 100, 50, 25, 12.5, 6.25, 3.13, 1.56 μg/ml) and then mixed with PBS buffer in 1:1 ratio (100 μL:100 μL) by volume. In 1:1 ratio (v/v), the red blood cell solution was mixed with a PBS buffer, with or without 2% Triton X-100, respectively as the positive and negative controls. All samples to be tested were settled at 37° C. environment for 1 hour. Next, the specimen was centrifuged under RCF 800 g for 10 minutes and the absorbance of its supernatant was measured at a wavelength of 450 nm. The hemolytic activity would be measured according to the following formula: “% hemolysis=[Asample−APBS]/[ATritonX100−APBS]”

MIC in LYM medium, NaCl 50 [1] [µg/mL]	MIC in LYM medium, NaCl 100 [1] [µg/mL]	MIC in LYM medium, NaCl 200 [1] [µg/mL]	MIC in LYM medium, NaCl 300 [1] [µg/mL]	MIC in LYM medium, control [1] [µg/mL]	Antimicrobial activity (MIC) Experimental values (E. coli ATCC 25922) [µg/mL]	MIC in MH medium (E. coli ATCC 25922) [µg/mL]	SMILES	hemolytic activity on human erythrocytes (human red blood cells)
1.56 (≈ 0.86 µM)	1.56 (≈ 0.86 µM)	1.56 (≈ 0.86 µM)	3.13 (≈ 1.73 µM)	1.56 (≈ 0.86 µM)	1.56	1.56 (≈ 0.86 µM)	CC(C)C[C@H](NC(=O)[C@H](Cc1c[nH]c2ccccc12)NC(=O)[C@H](CCCCN)NC(=O)[C@H](CC(C)C)NC(=O)[C@H](Cc1c[nH]c2ccccc12)NC(=O)[C@H](CCCCN)NC(=O)[C@H](CC(C)C)NC(=O)[C@H](Cc1c[nH]c2ccccc12)NC(=O)[C@H](CCCCN)NC(=O)[C@H](CCCCN)NC(=O)[C@H](CCCCN)NC(=O)[C@H](CCCCN)NC(=O)[C@@H](N)CCCCN)C(=O)O [SEQ ID NO. 11, KKKKKWLKWLKWL] (H-KKKKKWLKWLKWL-OH; N-terminus and C-terminus assumed)	
1.56 (≈ 0.86 µM)	3.13 (≈ 1.73 µM)	3.13 (≈ 1.73 µM)	3.13 (≈ 1.73 µM)	1.56 (≈ 0.86 µM)	1.56	1.56 (≈ 0.86 µM)	CC(C)C[C@H](NC(=O)[C@H](Cc1c[nH]c2ccccc12)NC(=O)[C@H](CCCCN)NC(=O)[C@H](CC(C)C)NC(=O)[C@H](Cc1c[nH]c2ccccc12)NC(=O)[C@H](CCCCN)NC(=O)[C@H](CC(C)C)NC(=O)[C@H](Cc1c[nH]c2ccccc12)NC(=O)[C@H](CCCCN)NC(=O)[C@H](CCCCN)NC(=O)[C@H](CCCCN)NC(=O)[C@@H](N)CCCCN)C(=O)N[C@@H](CCCCN)C(=O)O [SEQ ID NO. 12, KKKKWLKWLKWLK] (H-KKKKWLKWLKWLK-OH)	lower hemolytic activity
3.13 (≈ 1.73 µM)	1.56 (≈ 0.86 µM)	3.13 (≈ 1.73 µM)	12.5 (≈ 6.89 µM)	1.56 (≈ 0.86 µM)	1.56	1.56 (≈ 0.86 µM)	CC(C)C[C@H](NC(=O)[C@H](Cc1c[nH]c2ccccc12)NC(=O)[C@H](CCCCN)NC(=O)[C@H](CC(C)C)NC(=O)[C@H](Cc1c[nH]c2ccccc12)NC(=O)[C@H](CCCCN)NC(=O)[C@H](CC(C)C)NC(=O)[C@H](Cc1c[nH]c2ccccc12)NC(=O)[C@H](CCCCN)NC(=O)[C@H](CCCCN)NC(=O)[C@@H](N)CCCCN)C(=O)N[C@@H](CCCCN)C(=O)N[C@@H](CCCCN)C(=O)O [SEQ ID NO. 13, KKKWLKWLKWLKK] (H-KKKWLKWLKWLKK-OH; N-terminus and C-terminus assumed)	
